{"source": "patent US20110311619A1", "about": "(Ethypharm, priority 2008, published 2011)", "origin": "cited, not measured here"}
{"smiles": "CC(C)(Oc1ccc(C(=O)c2ccc(Cl)cc2)cc1)C(=O)O", "note": "[fenofibric acid]", "values": [{"measurement": "mean plasma concentration", "setting": "dose of 300 mg fenofibrate per day", "result": "roughly 15 μg/ml"}, {"measurement": "plasma elimination half-life", "setting": "in vivo", "result": "roughly 20 hours"}, {"measurement": "time after ingestion at which maximum plasma concentration is reached", "setting": "on average, after ingestion of the drug", "result": "five"}]}
